30 compounds from ChEMBL document CHEMBL1140281, “The discovery of a selective, high affinity A(2B) adenosine receptor antagonist for the potential treatment of asthma” (Bioorg Med Chem Lett, 2005) can be followed below.

Assay [1] concerns the target T1, Adenosine receptor A2b (Homo sapiens, UniProt P29275).
T1 sequence (P29275 whole entry): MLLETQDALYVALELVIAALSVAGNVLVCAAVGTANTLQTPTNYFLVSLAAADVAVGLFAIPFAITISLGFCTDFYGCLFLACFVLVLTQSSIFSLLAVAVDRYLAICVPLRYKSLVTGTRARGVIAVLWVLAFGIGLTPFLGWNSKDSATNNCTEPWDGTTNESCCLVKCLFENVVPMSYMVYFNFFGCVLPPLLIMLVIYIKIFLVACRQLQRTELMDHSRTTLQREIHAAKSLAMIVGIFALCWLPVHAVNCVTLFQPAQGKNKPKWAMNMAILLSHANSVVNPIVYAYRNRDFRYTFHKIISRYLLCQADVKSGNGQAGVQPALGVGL

Assay [2] addresses T2, Adenosine receptor A1 (Homo sapiens, UniProt P30542).
T2 sequence (P30542 whole entry): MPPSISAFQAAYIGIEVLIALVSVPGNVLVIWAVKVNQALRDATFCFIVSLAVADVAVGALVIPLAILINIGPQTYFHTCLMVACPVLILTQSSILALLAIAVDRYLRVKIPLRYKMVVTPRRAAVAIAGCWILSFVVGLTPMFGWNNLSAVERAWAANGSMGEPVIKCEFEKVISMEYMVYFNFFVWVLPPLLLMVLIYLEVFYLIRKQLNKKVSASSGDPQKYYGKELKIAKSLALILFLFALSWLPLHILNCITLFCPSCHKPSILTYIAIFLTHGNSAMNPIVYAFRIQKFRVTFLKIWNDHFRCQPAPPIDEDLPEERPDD
In words: biochemical.

Assay [3] has as its target T3, Adenosine receptor A2a (Homo sapiens, UniProt P29274). In words: biochemical.
Description: Binding affinity for adenosine A2a receptor by using as [3H]ZM-241385 (2 nM) radioligand in membranes from HEK-A2A cells
The target in assay [4] is T1, Adenosine receptor A2b. In words: Binding affinity for adenosine A2b receptor by using as [3H]ZM-241385 radioligand in membranes from HEK-A2B cells.
Assay [5] concerns the target T3, Adenosine receptor A2a. In words: biochemical. The source holds these as a separate data set.
Description: Binding affinity against Adenosine A2a receptor labeled by [3H]ZM-241385 in membranes prepared from HEK-A2A cells
The target in assay [6] is T1, Adenosine receptor A2b. Kind of assay: Binding affinity against Adenosine A2b receptor labeled by [3H]ZM-241385 in membranes prepared from HEK-A2B cells.

T3 sequence (P29274 whole entry): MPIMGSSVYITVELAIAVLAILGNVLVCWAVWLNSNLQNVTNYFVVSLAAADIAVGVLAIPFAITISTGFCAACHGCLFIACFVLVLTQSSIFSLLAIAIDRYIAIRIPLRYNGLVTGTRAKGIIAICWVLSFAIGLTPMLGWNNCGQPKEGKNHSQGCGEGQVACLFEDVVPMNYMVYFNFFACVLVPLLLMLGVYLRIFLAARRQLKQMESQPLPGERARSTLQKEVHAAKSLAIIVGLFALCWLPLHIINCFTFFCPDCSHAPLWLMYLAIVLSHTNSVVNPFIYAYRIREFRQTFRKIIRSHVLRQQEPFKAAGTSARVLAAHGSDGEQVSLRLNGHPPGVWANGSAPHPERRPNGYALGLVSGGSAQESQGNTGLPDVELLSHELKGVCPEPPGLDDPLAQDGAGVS

Regarding `CCCn1c(=O)c2[nH]c(-c3ccc(OCc4noc(-c5cccc(F)c5)n4)cc3)nc2n(CCC)c1=O`, the Ki in assay [1] is over 2000 nM; in assay [2] it was over 6000 nM; in assay [3], over 5000 nM.

On to `CCCn1c(=O)c2[nH]c(-c3ccc(OCc4noc(-c5ccc(C#N)cc5)n4)cc3)nc2n(CCC)c1=O`, for which the Ki is 207 nM in assay [1], 288 nM in assay [2] and over 5000 nM in assay [3].

With `CCCn1c(=O)c2nc(-c3ccc(OCc4nc(-c5cccc(OC)c5)no4)cc3)[nH]c2n(CCC)c1=O`, the Ki in assay [1] is 1680 nM; in assay [2], over 6000 nM; in assay [3], over 5000 nM.

In the case of `CCCn1c(=O)c2[nH]c(-c3ccc(OCc4nc(-c5ccccc5OC)no4)cc3)nc2n(CCC)c1=O`, the Ki in assay [1] is 557 nM; in assay [2], over 6000 nM; in assay [3], over 5000 nM.

Take `CCCn1c(=O)c2nc(-c3ccc(OCc4noc(-c5cccc(C(F)(F)F)c5)n4)cc3)[nH]c2n(CCC)c1=O`: the Ki was 1010 nM in assay [1], over 6000 nM in assay [2] and over 5000 nM in assay [3].

With `CCCn1c(=O)c2[nH]c(-c3ccc(OCc4noc(-c5ccc(OC)cc5)n4)cc3)nc2n(CCC)c1=O`, the results for the Ki in assay [1] and in assay [2] were 250 nM and 2190 nM, respectively.

As for `CCCn1c(=O)c2[nH]c(-c3ccc(OCc4noc(-c5ccc(F)cc5)n4)cc3)nc2n(CCC)c1=O`, the results for the Ki in assay [1], in assay [2] and in assay [3] were 220 nM, over 6000 nM and over 5000 nM, respectively.

For the compound `CCCn1c(=O)c2[nH]c(-c3ccc(OCc4nc(-c5ccc(Cl)cc5)no4)cc3)nc2n(CCC)c1=O`, in assay [1], the Ki stood at 5170 nM.

As to `CCCn1c(=O)c2nc(-c3ccc(OCc4nc(-c5ccccc5C(F)(F)F)no4)cc3)[nH]c2n(CCC)c1=O`, the Ki turned out to be 325 nM in assay [1], 473 nM in assay [2] and 3140 nM in assay [3].

In assay [1], `CCCn1c(=O)c2nc(-c3ccc(OCc4noc(-c5ccccc5F)n4)cc3)[nH]c2n(CCC)c1=O` gave an inhibition constant Ki of 645 nM.

Regarding `CCCn1c(=O)c2nc(-c3ccc(OCc4nc(-c5ccccc5F)no4)cc3)[nH]c2n(CCC)c1=O`, the Ki in assay [1] is over 2000 nM; in assay [2], over 6000 nM; in assay [3], over 5000 nM.

As to `CCCn1c(=O)c2nc(-c3ccc(OCc4nc(-c5ccc(OC)cc5)no4)cc3)[nH]c2n(CCC)c1=O`, the results for the Ki in assay [1], in assay [2] and in assay [3] were 2780 nM, over 6000 nM and over 5000 nM, respectively.

For `CCCn1c(=O)c2[nH]c(-c3ccc(OCc4nc(-c5ccc(F)cc5)no4)cc3)nc2n(CCC)c1=O`, the Ki in assay [1] was 215 nM; in assay [2], 1830 nM; in assay [3], over 5000 nM; in assay [4], 215 nM.

As to `CCCn1c(=O)c2nc(-c3ccc(OCc4noc(-c5cccc(Cl)c5)n4)cc3)[nH]c2n(CCC)c1=O`, the Ki in assay [1] is 2080 nM; in assay [2], over 6000 nM; in assay [3], over 5000 nM.

Regarding `CCCn1c(=O)c2[nH]c(-c3ccc(OCc4nc(-c5cccc(C(F)(F)F)c5)no4)cc3)nc2n(CCC)c1=O`, the Ki in assay [1] was 945 nM; in assay [2] it was over 6000 nM; in assay [3], over 5000 nM.

On to `CCCn1c(=O)c2nc(-c3ccc(OCc4noc(-c5ccc(C)cc5)n4)cc3)[nH]c2n(CCC)c1=O`, for which the Ki in assay [1] was found to be 91 nM; in assay [2], 113 nM; in assay [3], 1010 nM.

As for `CCCn1c(=O)c2nc(-c3ccc(OCc4nc(-c5cccc(C)c5)no4)cc3)[nH]c2n(CCC)c1=O`, the Ki is over 6670 nM in assay [1], over 6000 nM in assay [2] and over 5000 nM in assay [3].

As for `CCCn1c(=O)c2nc(-c3ccc(OCc4noc(-c5ccc(C(F)(F)F)cc5)n4)cc3)[nH]c2n(CCC)c1=O`, the Ki in assay [1] worked out at 255 nM; in assay [2], 5180 nM; in assay [3], 4910 nM.

Turning to `CCCn1c(=O)c2nc(-c3ccc(OCc4nc(-c5ccccc5C)no4)cc3)[nH]c2n(CCC)c1=O`, the Ki was 1120 nM in assay [1], over 6000 nM in assay [2] and over 5000 nM in assay [3].

The compound `CCCn1c(=O)c2[nH]c(-c3ccc(OCc4noc(-c5cccc(C)c5)n4)cc3)nc2n(CCC)c1=O` yielded a Ki in assay [1] of 700 nM.

For the compound `CCCn1c(=O)c2nc(-c3ccc(OCc4noc(-c5ccccc5C)n4)cc3)[nH]c2n(CCC)c1=O`, the values for the Ki in assay [1], in assay [2] and in assay [3] were 438 nM, over 10000 nM and over 15000 nM, respectively.

As to `CCCn1c(=O)c2nc(-c3ccc(OCc4nc(-c5ccccc5Cl)no4)cc3)[nH]c2n(CCC)c1=O`, the Ki in assay [1] was 1830 nM; in assay [2] it was over 6000 nM; in assay [3], over 5000 nM.

Consider `CCCn1c(=O)c2nc(-c3ccc(OCc4nc(-c5ccc(C#N)cc5)no4)cc3)[nH]c2n(CCC)c1=O`, for which the Ki in assay [1] was 4520 nM; in assay [2], over 6000 nM; in assay [3] it was over 5000 nM.

Turning to `CCCn1c(=O)c2[nH]c(-c3ccc(OCc4nc(-c5ccc(C(F)(F)F)cc5)no4)cc3)nc2n(CCC)c1=O`, the Ki was 485 nM in assay [1], 1170 nM in assay [2] and over 5000 nM in assay [3].

Regarding `CCCn1c(=O)c2nc(-c3ccc(OCc4nc(-c5ccc(C)cc5)no4)cc3)[nH]c2n(CCC)c1=O`, the Ki is 526 nM in assay [1], 643 nM in assay [2] and over 5000 nM in assay [3].

For the compound `CCCn1c(=O)c2nc(-c3ccc(OCc4nc(-c5cccc(F)c5)no4)cc3)[nH]c2n(CCC)c1=O`, the results for the Ki in assay [1], in assay [2] and in assay [3] were 1450 nM, 2010 nM and over 5000 nM, respectively.

With `CCCn1c(=O)c2[nH]c(-c3ccc(OCc4noc(-c5ccccc5OC)n4)cc3)nc2n(CCC)c1=O`, the Ki came to 127 nM in assay [1]; 23 nM in assay [5]; 127 nM in assay [6]; 1160 nM in assay [2]; 2940 nM in assay [3].

For the compound `CCCn1c(=O)c2nc(-c3ccc(OCc4nc(-c5cccc(Cl)c5)no4)cc3)[nH]c2n(CCC)c1=O`, the figures for the Ki in assay [1], in assay [2] and in assay [3] were 42 nM, 6.4 nM and 407 nM, respectively.

With `CCCn1c(=O)c2[nH]c(-c3ccc(OCc4noc(-c5ccccc5Cl)n4)cc3)nc2n(CCC)c1=O`, the Ki in assay [1] worked out at 5830 nM.

In turn, `CCCn1c(=O)c2nc(-c3ccc(OCc4noc(-c5ccc(Cl)cc5)n4)cc3)[nH]c2n(CCC)c1=O` gave a Ki in assay [1] of 3660 nM.

In general, Ki refers to the dissociation constant of the complex between target and ligand, obtained from inhibition or displacement. Low values mean tighter binding, high ones weaker binding.
